Source: paper PMC12595484, “Optimizing multifunctional fluorescent ligands for intracellular labeling” (Proceedings of the National Academy of Sciences of the …, 2025)

Columns and labels:
HaloTag protein = target: T1, HaloTag protein (Rhodococcus rhodochrous, UniProt P0A3G2, A155T/A167V/A172T/A224E/C128F/C176G/D78G/E160K/E257K/H272N/K175M/K195N/L47V/L88M/N227D/S58T/T264A/Y273L/Y87F); test: Absorbance/fluorescence increase upon HaloTag binding; type: biochemical; conditions: HaloTag conjugate vs free ligand
T1 construct: made in house
Description: HaloTag protein purification. The bacterial expression vector pRSET-A (Invitrogen) was used to recombinantly express HaloTag (HT7; Promega).1 The soluble 6×His-Tagged HaloTag protein was affinity purified by immobilized metal affinity chromatography (IMAC) on a 5 -mL Fast Flow HiTrap Sepharose 6 column (Cytiva) with a 0–200 mM imidazole elution gradient using an Avant Protein Purification System (ÄKTA). A280 peak fractions were pooled, concentrated by a spin concentrator, and dialyzed 3× into tris-buffered saline (TBS). The amino acid sequence of HaloTag (HT7) expressed from pRSET-A is noted below; the annotated DNA and amino acid sequences […]
Spectroscopy of HaloTag ligands and HaloTag conjugates. […]
± 2 °C). Absorption spectra were recorded on a Cary Model 100 spectrometer (Agilent) using 1-cm path length 1.0-mL quartz microcuvettes from Starna Cells. Fluorescence spectra were recorded on a Cary Eclipse fluorometer (Varian) using 1-cm path length 3.5-mL quartz cuvettes (Starna Cells). […] An aliquot of HaloTag protein (1.5 equiv) was added, and the resulting mixture was incubated until a consistent absorbance signal was observed (60–120 min).
To measure the fold-increase of absorbance upon HaloTag binding, a “no HaloTag” control experiment was performed where an equivalent volume of TBS blank was added in place of the protein. […]

[1] = tested on: HEK293T cells expressing msGFP–HaloTag localized to the mitochondrial outer membrane; test: HEK293T labeling and fluorescence microscopy; type: cell-based
Description: Plasmid construction for mitochondria imaging and affinity purification. HaloTag, amplified from the pHTC HaloTag CMV-neo Vector (Promega; G7711) and monomeric-superfolder green fluorescent protein (msGFP; lab stock), was fused to the mitochondrial targeting signal from OMP25,8 interspacing flexible GS(GSS)4 linkers between each domain by PCR Splicing by Overlap Extension (SOE). This construct was subcloned into hSynapsin promoter bearing a copy of FUGW.9 FUGW was a gift from David Baltimore (Addgene plasmid # 14883; RRID:
Addgene_14883).10 This construct was designated as pF(UG) hSyn HaloTag-TEV-4×GS-msGFP- […]
HEK293T cell culture. HEK293T cells (ATCC) were passaged before 80% confluency by trypsinization (Corning; 25-053-CI) and trituration. The cell suspension was then plated on glass coverslips (Warner instruments; 64-0734, CS-18R17) coated with poly-D-lysine (Thermofisher; ICN10269491) and cultured in Dulbecco's modified Eagle medium (DMEM; ThermoFisher; 11965-118) supplemented with 10% (v/v) fetal bovine serum (FBS, Atlanta Biological) and penicillin/streptomycin (pen/strep; ThermoFisher; MT-30-001-CI) at 37 °C in a humidified 5% (v/v) CO2 environment following ATCC guidelines. These HEK293T cells were tested for mycoplasma contamination using the Universal Mycoplasma Detection Kit (ATCC; 30-1012K) and validated using Short Tandem Repeat profiling by ATCC (ATCC; 135-XV) within the previous year or were from newly purchased stock from ATCC. HEK293T cells were transfected with pF(UG) hSyn HaloTag-TEV-4×GS-msGFP-mito using a standard calcium phosphate protocol11 or using lipofectamine LTX reagent (ThermoFisher; 15338100). We note that this plasmid is optimized for lentivirus-mediated expression, but robust expression in HEK293T cells […]
HEK293T labeling and fluorescence microscopy. One day after HEK293T cell transfection, the GFP fluorescence signal was confirmed, and HaloTag ligand labeling experiments were conducted. For pulse–chase experiments, HEK293T cells were incubated with biotin-HaloTag ligand (17HTL; #G8281, Promega) at either 100 nM or 10 μM for 1 hour at 37 °C and chased with 100 nM of JF549-HaloTag ligand (2HTL). We also evaluated a commercial biotin-HaloTag ligand […]
indicated in the product information12 and from a previous publication.13 For labeling with biotin-JF-HaloTag ligands 13HTL–16HTL, cells were incubated with 100 nM or 1 µM ligand for 0.5–2 h at 37 °C. For imaging, the coverslips containing HEK293T cells were fixed with 4% (w/v) paraformaldehyde in PBS at 37 °C for 10 min, washed with PBS (3×), and mounted on glass slides with ProLong Glass Antifade Mountant with NucBlueTM Stain (ThermoFisher; P36981). These cells were imaged using a Zeiss LSM 880 with Airyscan and a plan-apochromatic 63×/1.40 oil objective in Fast Airyscan mode. The same image acquisition settings were used for each trial and condition. Images were then processed with automatic Airyscan deconvolution settings. For quantitation of labeling intensity, ROIs were drawn surrounding individual HEK cells, and the average fluorescence ratio (JF/msGFP) from multiple cells in each condition was measured; no background subtraction was necessary. […]
JF608-HaloTag ligand (14HTL), biotin-JF646-HaloTag ligand (15HTL), or biotin-JF635-HaloTag ligand (16HTL) for 1 h at 37 °C, washed 3× with dye-free media, then fixed with 4% paraformaldehyde in 0.1 M phosphate buffer for 15 min at 37 °C. Fixed cells were then washed 3× in 1× PBS and incubated with Hoechst 33342 (5µg/mL) for 15 min at 22 °C as a nuclear counterstain. Airyscan imaging was performed on a Zeiss LSM 980 with Airyscan 2 confocal microscope using a Plan APO 63×/1.4 oil DIC M27 objective. The same acquisition settings were used for all constructs labeled with 13HTL–16HTL. These single plane images were bulk processed in ZEN Blue (Zeiss) with automatic Airyscan settings.
Dye loading kinetics. Live U2OS.H2B.HaloTag stable cells were labeled over a time course of […]

T1 sequence (P0A3G2 other isoform, or with tags, fused parts or gaps with the stated changes): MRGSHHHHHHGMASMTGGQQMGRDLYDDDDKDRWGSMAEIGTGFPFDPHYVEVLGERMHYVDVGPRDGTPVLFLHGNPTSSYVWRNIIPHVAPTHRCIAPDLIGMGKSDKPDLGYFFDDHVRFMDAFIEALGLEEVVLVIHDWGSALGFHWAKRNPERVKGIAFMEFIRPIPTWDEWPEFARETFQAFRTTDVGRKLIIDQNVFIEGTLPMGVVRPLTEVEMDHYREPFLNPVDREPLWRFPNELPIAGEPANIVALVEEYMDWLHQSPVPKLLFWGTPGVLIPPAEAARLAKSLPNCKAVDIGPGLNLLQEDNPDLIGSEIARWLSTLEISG

| SMILES | fluorogenicity upon HaloTag binding (HaloTag protein) | Pearson's correlation coefficient between rhodamine and GFP signals [1] | intracellular labeling by live-cell imaging [1] |
| --- | --- | --- | --- |
| C[Si]1(C)C2=CC(=[N+]3CC(C(=O)NCCOCCOCCNC(=O)CCCC[C@@H]4SC[C@@H]5NC(=O)N[C@@H]54)C3)C=CC2=C(c2cc(C(=O)NCCOCCOCCCCCCCl)ccc2C(=O)[O-])c2ccc(N3CCC3)cc21 (some centres unmarked) [15HTL, biotin–JF646–HaloTag ligand] | 2.9 fold | 0.89 | robust labeling and colocalization with mitochondrial-localized GFP |
| O=C(CCCCC1SCC2NC(=O)NC21)NCCOCCOCCNC(=O)C1C[N+](=c2ccc3c(-c4cc(C(=O)NCCOCCOCCCCCCCl)ccc4C(=O)[O-])c4ccc(N5CCC5)cc4oc-3c2)C1 (centres unmarked) [13HTL, biotin–JF549–HaloTag ligand] |  |  | low intracellular signal |
| C[Si]1(C)c2cc(N3CC(F)C3)ccc2C2(OC(=O)c3ccc(C(=O)NCCOCCOCCCCCCCl)cc32)c2ccc(N3CC(F)C3)cc21 [6HTL, JF635–HaloTag ligand, reference compound] |  | 0.92 |  |
| C[Si]1(C)C2=CC(=[N+]3CC(F)(C(=O)NCCOCCOCCNC(=O)CCCC[C@@H]4SC[C@@H]5NC(=O)N[C@@H]54)C3)C=CC2=C(c2cc(C(=O)NCCOCCOCCCCCCCl)ccc2C(=O)[O-])c2ccc(N3CC(F)C3)cc21 (some centres unmarked) [16HTL, biotin–JF635–HaloTag ligand] | 17.6 fold | 0.87 | robust labeling and colocalization with mitochondrial-localized GFP |
